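Dose response: 5 concentrations. Exposure: 48 h. Format: 96-well plates. Endpoint: linear interpolation; highest concentration if not reached. TGI: concentration producing complete growth inhibition.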
What was measured:
Assay in all cases: DTP human tumour cell line panel, 48 h
[1] = system: MCF7 breast
[2] = system: HT29 colon
[3] = system: NCI-H460 lung
[4] = system: U251 CNS
[5] = system: OVCAR-5 ovarian
[6] = system: EKVX NSCLC
[7] = system: SK-MEL-2 melanoma
[8] = system: M14 melanoma
[9] = system: CAKI-1 renal
[10] = system: SW-620 colon
[11] = system: MDA-N
[12] = system: SK-MEL-5 melanoma
[13] = system: ACHN renal
[14] = system: MDA-MB-435
[15] = system: HCC-2998 colon
[16] = system: A549 NSCLC
[17] = system: RXF 393 renal
[18] = system: NCI-H23 lung
[19] = system: LOX IMVI melanoma
[20] = system: SNB-19 CNS
[21] = system: HCT-116 colon
[22] = system: OVCAR-4 ovarian
[23] = system: NCI-H226 lung
[24] = system: UACC-257 melanoma
[25] = system: MALME-3M melanoma
[26] = system: HS 578T breast
[27] = system: HOP-92 NSCLC
[28] = system: NCI/ADR-RES ovarian
[29] = system: NCI-H522 lung
[30] = system: A498 renal
[31] = system: SK-MEL-28 melanoma
[32] = system: UO-31 renal
[33] = system: SF-268 CNS
[34] = system: HOP-62 NSCLC
[35] = system: MOLT-4 leukemia
[36] = system: PC-3 prostate
[37] = system: SNB-75 CNS
[38] = system: OVCAR-8 ovarian
[39] = system: COLO 205 colon
[40] = system: HCT-15 colon
[41] = system: MDA-MB-231 breast
[42] = system: SF-539 CNS
[43] = system: OVCAR-3 ovarian
[44] = system: T-47D breast
[45] = system: CCRF-CEM leukemia
[46] = system: RPMI-8226 leukemia
[47] = system: SN12C renal
[48] = system: DU-145 prostate
[49] = system: K-562 leukemia
[50] = system: BT-549 breast
[51] = system: KM12 colon
[52] = system: 786-0 renal
[53] = system: SF-295 CNS
[54] = system: SK-OV-3 ovarian
[55] = system: SR leukemia
[56] = system: TK-10 renal
[57] = system: UACC-62 melanoma
[58] = system: IGROV1 ovarian
[59] = system: HL-60(TB) leukemia

Question: Which results are given for `CC(=Nc1ccc(Cl)cc1)c1ccncc1`?
Answer: TGI [1]: > 100 µM; TGI [2]: > 100 µM; TGI [3]: > 100 µM; TGI [4]: > 100 µM; TGI [5]: > 100 µM; TGI [6]: > 100 µM; TGI [7]: > 100 µM; TGI [8]: > 100 µM; TGI [9]: > 100 µM; TGI [10]: > 100 µM; TGI [11]: > 100 µM; TGI [12]: > 100 µM; TGI [13]: > 100 µM; TGI [14]: > 100 µM; TGI [15]: > 100 µM; TGI [16]: > 100 µM; TGI [17]: > 100 µM; TGI [18]: > 100 µM; TGI [19]: > 100 µM; TGI [20]: > 100 µM; TGI [21]: > 100 µM; TGI [22]: > 100 µM; TGI [23]: > 100 µM; TGI [24]: > 100 µM; TGI [25]: > 100 µM; TGI [26]: > 100 µM; TGI [27]: > 100 µM; TGI [28]: > 100 µM; TGI [29]: > 100 µM; TGI [30]: > 100 µM; TGI [31]: > 100 µM; TGI [32]: > 100 µM; TGI [33]: > 100 µM; TGI [34]: > 100 µM; TGI [35]: > 100 µM; TGI [36]: > 100 µM; TGI [37]: > 100 µM; TGI [38]: > 100 µM; TGI [39]: > 100 µM; TGI [40]: > 100 µM; TGI [41]: > 100 µM; TGI [42]: 77.9 µM; TGI [43]: > 100 µM; TGI [44]: > 100 µM; TGI [45]: > 100 µM; TGI [46]: > 100 µM; TGI [47]: > 100 µM; TGI [48]: > 100 µM; TGI [49]: > 100 µM; TGI [50]: > 100 µM; TGI [51]: > 100 µM; TGI [52]: > 100 µM; TGI [53]: > 100 µM

Question: How did the TGI [1] turn out when `CC1(C)N=C(C(N)=O)c2ncn(Cc3ccccc3)c2N1` was run?
Answer: > 100 µM

Question: What about the TGI [2] of the same compound?
Answer: > 100 µM

Question: What about the TGI [3] of the same compound?
Answer: > 100 µM

Question: And the TGI [4]?
Answer: > 100 µM

Question: What about the TGI [5] of the same compound?
Answer: > 100 µM

Question: And the TGI [6]?
Answer: > 100 µM

Question: And the TGI [7]?
Answer: > 100 µM

Question: What about the TGI [54] of the same compound?
Answer: > 100 µM

Question: And the TGI [55]?
Answer: > 100 µM

Question: What about the TGI [8] of the same compound?
Answer: > 100 µM

Question: What about the TGI [9] of the same compound?
Answer: > 100 µM

Question: And the TGI [10]?
Answer: > 100 µM

Question: What about the TGI [11] of the same compound?
Answer: > 100 µM

Question: And the TGI [56]?
Answer: > 100 µM

Question: What about the TGI [12] of the same compound?
Answer: > 100 µM

Question: And the TGI [13]?
Answer: > 100 µM

Question: What about the TGI [14] of the same compound?
Answer: > 100 µM

Question: What about the TGI [57] of the same compound?
Answer: > 100 µM

Question: And the TGI [15]?
Answer: > 100 µM

Question: What about the TGI [16] of the same compound?
Answer: > 100 µM

Question: What about the TGI [17] of the same compound?
Answer: > 100 µM

Question: What about the TGI [18] of the same compound?
Answer: > 100 µM

Question: And the TGI [19]?
Answer: > 100 µM

Question: What about the TGI [20] of the same compound?
Answer: > 100 µM

Question: What about the TGI [21] of the same compound?
Answer: > 100 µM

Question: And the TGI [58]?
Answer: > 100 µM

Question: What about the TGI [22] of the same compound?
Answer: > 100 µM

Question: And the TGI [23]?
Answer: > 100 µM

Question: And the TGI [24]?
Answer: > 100 µM

Question: What about the TGI [25] of the same compound?
Answer: > 100 µM

Question: What about the TGI [26] of the same compound?
Answer: > 100 µM

Question: And the TGI [27]?
Answer: > 100 µM

Question: And the TGI [28]?
Answer: > 100 µM

Question: What about the TGI [29] of the same compound?
Answer: > 100 µM

Question: And the TGI [30]?
Answer: > 100 µM

Question: What about the TGI [31] of the same compound?
Answer: > 100 µM

Question: What about the TGI [33] of the same compound?
Answer: > 100 µM

Question: And the TGI [34]?
Answer: > 100 µM

Question: What about the TGI [36] of the same compound?
Answer: > 100 µM

Question: And the TGI [37]?
Answer: > 100 µM

Question: What about the TGI [38] of the same compound?
Answer: > 100 µM

Question: What about the TGI [39] of the same compound?
Answer: > 100 µM

Question: What about the TGI [40] of the same compound?
Answer: > 100 µM

Question: And the TGI [41]?
Answer: > 100 µM

Question: What about the TGI [42] of the same compound?
Answer: > 100 µM

Question: And the TGI [43]?
Answer: > 100 µM

Question: And the TGI [44]?
Answer: > 100 µM

Question: What about the TGI [45] of the same compound?
Answer: > 100 µM

Question: And the TGI [46]?
Answer: > 100 µM

Question: And the TGI [47]?
Answer: > 100 µM

Question: What about the TGI [48] of the same compound?
Answer: > 100 µM

Question: What about the TGI [49] of the same compound?
Answer: > 100 µM

Question: What about the TGI [51] of the same compound?
Answer: > 100 µM

Question: What about the TGI [59] of the same compound?
Answer: > 100 µM

Question: And the TGI [52]?
Answer: > 100 µM

Question: And the TGI [53]?
Answer: > 100 µM

From PubChem BioAssay (NCI)
